Read-outs that look alike come from different tables or passages of the source.
What was measured:
[1] = tested on: CRP; test: CRP measurements in the 14 week blinded randomized study; format: in vivo, human; details: ITT (LOCF)
Source text: The study population had active rheumatoid arthritis.
The powered study ended after these first 10 weeks. […] A schematic of the study design is shown below.

[2] = tested on: subjects with active rheumatoid arthritis; details: ITT (LOCF)
Source text: A visual analog scale (VAS) provides a measure of a one-dimensional quantity. A VAS generally utilizes a representation of distance, such as a picture of a line with hash marks drawn at regular distance intervals, e.g., ten 1-cm intervals. […] This procedure provides a simple and rapid approach to obtaining quantitative information about how the patient is experiencing pain. VAS scales can also be used, e.g., to measure fatigue.
(§1) We conducted a 14 week blinded, randomized study including a split dose corticosteroid therapy or placebo, with regular CRP and inflammatory cytokine measurements. The study population had active rheumatoid arthritis. The subject must otherwise have been in good general health.
(§2) Screening Visit • Day 1 (Baseline Visit)—Start of Run-In Period • Day 14 (±2 days)—End of Run-In Period/Start of Treatment Period • Day 42 (±2 days) • Day 70 (±2 days)—End of Treatment Period/Start of Withdrawal Period • Day 98 (±2 days)—End of Study
(§3) All eligible subjects received DMARD therapy in a stable dose. Subjects were evaluated for study eligibility at the Screening visit, which was conducted within 14 days before the first dose of study drug. The subject provided written informed consent to participate in the study before any Screening laboratory samples were collected or evaluations performed.
(§4) All subjects were given 3 mg prednisolone alone for 2 weeks (Run-In Period). Subjects were then randomized into treatment groups to additionally receive 10 mg paroxetine, 20 mg paroxetine or placebo tablets for 8 weeks (Combination Treatment Period). The powered study ended after these first 10 weeks. All subjects continued in an un-powered part of the study for an additional 4 weeks (Withdrawal Period). In this portion of the study, half of the subjects on 10 mg or 20 mg paroxetine plus 3 mg prednisolone stopped taking paroxetine, and instead took 3 mg prednisolone plus placebo, while the other half stopped taking prednisolone, and instead took either dose of paroxetine plus placebo. Similarly, half of the subjects on prednisolone plus placebo stopped the prednisolone, and instead took two placebo tablets, while the other half continued the regimen of 3 mg prednisolone plus placebo.

[3] = tested on: subjects with active rheumatoid arthritis; details: ITT, missing = non-responder, subjects (% of arm)
Source text: ACR-20/50/70 refers to a composite improvement of 20%, 50% or 70% in swollen joint count, tender joint count, and 3 or more of the following 5 measures: patient's own global assessment of RA disease activity; physician's global assessment of disease activity; patient's own assessment of pain due to RA; acute-phase reactant (CRP); and patient's self-addressed disability (Health Assessment Questionnaire).
as §1, §2, §3, §4

[4] = cited from earlier work; for Equivalent dose, Equal to 1 mg prednisolone / Equivalent dose, Equal to 5 mg prednisolone: BNF guidelines
[5] = Day 14 (end of run-in, 3 mg prednisolone alone in all arms)

Compound: C[C@]12C=CC(=O)C=C1CC[C@@H]1[C@@H]2[C@@H](O)C[C@@]2(C)[C@H]1CC[C@]2(O)C(=O)CO [3 mg Prednisolone + Placebo, prednisolone]
- CRP % Change from baseline, Max [1, 5]: 1700.0%
- CRP % Change from baseline, Mean (Std Dev) [1, 5]: 7.11 (215.970) %
- CRP % Change from baseline, Median [1, 5]: −32.26%
- CRP % Change from baseline, Min [1, 5]: −95.8%
- CRP Change from baseline, Max [1, 5]: 77.9
- CRP Change from baseline, Mean (Std Dev) [1, 5]: −7.40 (20.149)
- CRP Change from baseline, Median [1, 5]: −1.70
- CRP Change from baseline, Min [1, 5]: −83.2
- CRP Value, Max [1, 5]: 107.3
- CRP Value, Mean (Std Dev) [1, 5]: 11.42 (17.413)
- CRP Value, Median [1, 5]: 6.20
- CRP Value, Min [1, 5]: 0.3
- CRP % Change from baseline, Max ([1]; Day 42): 187.3%
- CRP % Change from baseline, Mean (Std Dev) ([1]; Day 42): −17.67 (58.589) %
- CRP % Change from baseline, Median ([1]; Day 42): −23.53%
- CRP % Change from baseline, Min ([1]; Day 42): −92.5%
- CRP Change from baseline, Max ([1]; Day 42): 21.5
- CRP Change from baseline, Mean (Std Dev) ([1]; Day 42): −8.61 (18.009)
- CRP Change from baseline, Median ([1]; Day 42): −1.00
- CRP Change from baseline, Min ([1]; Day 42): −81.4
- CRP Value, Max ([1]; Day 42): 70.6
- CRP Value, Mean (Std Dev) ([1]; Day 42): 10.22 (12.443)
- CRP Value, Median ([1]; Day 42): 5.40
- CRP Value, Min ([1]; Day 42): 0.3
- CRP % Change from baseline, Max ([1]; Day 70): 187.3%
- CRP % Change from baseline, Mean (Std Dev) ([1]; Day 70): −13.66 (64.905) %
- CRP % Change from baseline, Median ([1]; Day 70): −29.27%
- CRP % Change from baseline, Min ([1]; Day 70): −92.8%
- CRP Change from baseline, Max ([1]; Day 70): 15.5
- CRP Change from baseline, Mean (Std Dev) ([1]; Day 70): −8.95 (18.996)
- CRP Change from baseline, Median ([1]; Day 70): −1.20
- CRP Change from baseline, Min ([1]; Day 70): −87.7
- CRP Value, Max ([1]; Day 70): 64.6
- CRP Value, Mean (Std Dev) ([1]; Day 70): 9.88 (11.956)
- CRP Value, Median ([1]; Day 70): 5.70
- CRP Value, Min ([1]; Day 70): 0.2
- Patient Pain Assessment (VAS) score % Change from baseline, Max [2, 5]: 106.7%
- Patient Pain Assessment (VAS) score % Change from baseline, Mean (Std Dev) [2, 5]: −13.65 (38.137) %
- Patient Pain Assessment (VAS) score % Change from baseline, Median [2, 5]: −11.11%
- Patient Pain Assessment (VAS) score % Change from baseline, Min [2, 5]: −94.7%
- Patient Pain Assessment (VAS) score Change from baseline, Max [2, 5]: 35.0
- Patient Pain Assessment (VAS) score Change from baseline, Mean (Std Dev) [2, 5]: −7.73 (19.337)
- Patient Pain Assessment (VAS) score Change from baseline, Median [2, 5]: −5.00
- Patient Pain Assessment (VAS) score Change from baseline, Min [2, 5]: −81.0
- Patient Pain Assessment (VAS) score Value, Max [2, 5]: 97.0
- Patient Pain Assessment (VAS) score Value, Mean (Std Dev) [2, 5]: 45.58 (25.283)
- Patient Pain Assessment (VAS) score Value, Median [2, 5]: 47.00
- Patient Pain Assessment (VAS) score Value, Min [2, 5]: 2.0
- Patient Pain Assessment (VAS) score % Change from baseline, Max ([2]; Day 42): 186.7%
- Patient Pain Assessment (VAS) score % Change from baseline, Mean (Std Dev) ([2]; Day 42): −19.23 (47.955) %
- Patient Pain Assessment (VAS) score % Change from baseline, Median ([2]; Day 42): −23.44%
- Patient Pain Assessment (VAS) score % Change from baseline, Min ([2]; Day 42): −93.5%
- Patient Pain Assessment (VAS) score Change from baseline, Max ([2]; Day 42): 56.0
- Patient Pain Assessment (VAS) score Change from baseline, Mean (Std Dev) ([2]; Day 42): −10.57 (21.630)
- Patient Pain Assessment (VAS) score Change from baseline, Median ([2]; Day 42): −9.00
- Patient Pain Assessment (VAS) score Change from baseline, Min ([2]; Day 42): −64.0
- Patient Pain Assessment (VAS) score Value, Max ([2]; Day 42): 97.0
- Patient Pain Assessment (VAS) score Value, Mean (Std Dev) ([2]; Day 42): 42.74 (26.143)
- Patient Pain Assessment (VAS) score Value, Median ([2]; Day 42): 37.00
- Patient Pain Assessment (VAS) score Value, Min ([2]; Day 42): 2.0
- Patient Pain Assessment (VAS) score % Change from baseline, Max ([2]; Day 70): 233.3%
- Patient Pain Assessment (VAS) score % Change from baseline, Mean (Std Dev) ([2]; Day 70): −17.84 (57.121) %
- Patient Pain Assessment (VAS) score % Change from baseline, Median ([2]; Day 70): −25.64%
- Patient Pain Assessment (VAS) score % Change from baseline, Min ([2]; Day 70): −90.5%
- Patient Pain Assessment (VAS) score Change from baseline, Max ([2]; Day 70): 49.0
- Patient Pain Assessment (VAS) score Change from baseline, Mean (Std Dev) ([2]; Day 70): −12.28 (23.864)
- Patient Pain Assessment (VAS) score Change from baseline, Median ([2]; Day 70): −10.00
- Patient Pain Assessment (VAS) score Change from baseline, Min ([2]; Day 70): −69.0
- Patient Pain Assessment (VAS) score Value, Max ([2]; Day 70): 97.0
- Patient Pain Assessment (VAS) score Value, Mean (Std Dev) ([2]; Day 70): 41.04 (25.466)
- Patient Pain Assessment (VAS) score Value, Median ([2]; Day 70): 39.00
- Patient Pain Assessment (VAS) score Value, Min ([2]; Day 70): 2.0
- ACR20 response from baseline: No [3, 5]: 53 (77)
- ACR20 response from baseline: Yes [3, 5]: 16 (23)
- ACR50 response from baseline: No [3, 5]: 64 (93)
- ACR50 response from baseline: Yes [3, 5]: 5 (7)
- ACR70 response from baseline: No [3, 5]: 66 (96)
- ACR70 response from baseline: Yes [3, 5]: 3 (4)
- ACR20 response from baseline: No ([3]; Day 42): 44 (64)
- ACR20 response from baseline: Yes ([3]; Day 42): 25 (36)
- ACR50 response from baseline: No ([3]; Day 42): 60 (87)
- ACR50 response from baseline: Yes ([3]; Day 42): 9 (13)
- ACR70 response from baseline: No ([3]; Day 42): 67 (97)
- ACR70 response from baseline: Yes ([3]; Day 42): 2 (3)
- ACR20 response from baseline: No ([3]; Day 70): 39 (57)
- ACR20 response from baseline: Yes ([3]; Day 70): 30 (43)
- ACR50 response from baseline: No ([3]; Day 70): 55 (80)
- ACR50 response from baseline: Yes ([3]; Day 70): 14 (20)
- ACR70 response from baseline: No ([3]; Day 70): 65 (94)
- ACR70 response from baseline: Yes ([3]; Day 70): 4 (6)

Compound: CC(=O)OCC(=O)[C@@]1(O)CC[C@H]2[C@@H]3CCC4=CC(=O)CC[C@]4(C)[C@H]3C(=O)C[C@@]21C [cortisone acetate]
- Equivalent dose, Equal to 1 mg prednisolone [4]: 5 mg
- Equivalent dose, Equal to 5 mg prednisolone [4]: 25 mg

Compound: CC(=O)OCC(=O)[C@@]12N=C(C)O[C@@H]1C[C@H]1[C@@H]3CCC4=CC(=O)C=C[C@]4(C)[C@H]3[C@@H](O)C[C@@]12C [deflazacort]
- Equivalent dose, Equal to 1 mg prednisolone [4]: 1.2 mg
- Equivalent dose, Equal to 5 mg prednisolone [4]: 6 mg

Compound: C[C@]12CCC(=O)C=C1CC[C@@H]1[C@@H]2[C@@H](O)C[C@@]2(C)[C@H]1CC[C@]2(O)C(=O)CO [hydrocortisone]
- Equivalent dose, Equal to 1 mg prednisolone [4]: 4 mg
- Equivalent dose, Equal to 5 mg prednisolone [4]: 20 mg

Compound: C[C@]12C=CC(=O)C=C1CC[C@H]1[C@@H]3C[C@@H](O)[C@](O)(C(=O)CO)[C@@]3(C)C[C@H](O)[C@@]12F [triamcinolone]
- Equivalent dose, Equal to 1 mg prednisolone [4]: 0.8 mg
- Equivalent dose, Equal to 5 mg prednisolone [4]: 4 mg
- Broadly similar dose from clinical dosing equivalence ([4]; nasal administration, BNF 37 Mar. 1999): 110 µg

Compound: methyl prednisone
- Equivalent dose, Equal to 1 mg prednisolone [4]: 0.8 mg
- Equivalent dose, Equal to 5 mg prednisolone [4]: 4 mg

Reference: patent US20080242646A1, “Split dose corticosteroid therapy” (priority 2007, published 2008)
